# Calls of active or inactive are those of the source.
# Assays:
# [1] = target: T1, Calpain-2 catalytic subunit (Sus scrofa, UniProt P43367); assay: m-calpain protease blockers, concentration series – biochemical, fluorogenic peptide substrate, dose response (AID 1420); type: functional
# T1 sequence (P43367 whole entry): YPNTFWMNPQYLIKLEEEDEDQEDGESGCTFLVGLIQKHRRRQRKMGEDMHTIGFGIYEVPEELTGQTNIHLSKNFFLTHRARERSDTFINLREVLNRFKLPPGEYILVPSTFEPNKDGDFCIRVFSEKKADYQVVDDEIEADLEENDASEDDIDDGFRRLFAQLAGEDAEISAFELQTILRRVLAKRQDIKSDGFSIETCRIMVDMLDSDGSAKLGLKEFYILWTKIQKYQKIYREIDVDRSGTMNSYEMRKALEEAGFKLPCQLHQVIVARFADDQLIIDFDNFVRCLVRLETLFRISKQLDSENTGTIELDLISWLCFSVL
# cells [2] = assay: cells
# [3] = viability of uninfected HEp-2 cells – cell-based, HTS, cytotoxicity control for RSV inhibitor project, dose response (AID 2410); type: functional; settings: human respiratory syncytial virus
# [4] = target: FAD-linked sulfhydryl oxidase ALR (Homo sapiens, UniProt P55789); assay: ALR-catalysed DTT oxidation blockers – biochemical, H2O2 detection, luminescence, cherry-pick, dose response (AID 493248)
# Sequence of FAD-linked sulfhydryl oxidase ALR (P55789 whole entry): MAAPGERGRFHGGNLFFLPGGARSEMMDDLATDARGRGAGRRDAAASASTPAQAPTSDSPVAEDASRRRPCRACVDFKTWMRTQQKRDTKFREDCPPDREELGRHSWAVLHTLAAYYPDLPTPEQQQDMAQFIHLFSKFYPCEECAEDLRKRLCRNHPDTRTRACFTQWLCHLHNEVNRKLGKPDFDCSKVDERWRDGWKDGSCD
# [5] = target: T2, Ubiquitin-conjugating enzyme E2 N (Homo sapiens, UniProt P61088); type: functional;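 further: Dose-response confirmation in a TR-FRET assay detecting UBC13-driven polyubiquitin chain formation, inhibition measured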
# T2 sequence (P61088 whole entry): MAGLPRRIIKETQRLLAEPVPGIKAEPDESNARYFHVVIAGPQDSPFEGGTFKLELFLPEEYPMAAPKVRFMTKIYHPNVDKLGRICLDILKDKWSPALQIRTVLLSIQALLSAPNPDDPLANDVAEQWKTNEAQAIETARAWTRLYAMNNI
# Cytochrome P450 2C19 = Cytochrome P450 2C19 (Homo sapiens, UniProt P33261); assay: Cytochrome panel assay with activity outcomes. Panel member name: p450-cyp2c19 Compounds with AC50 equal or less than 10 uM are considered active; type: functional; settings: read-out: AC50
# Sequence of Cytochrome P450 2C19 (P33261 whole entry): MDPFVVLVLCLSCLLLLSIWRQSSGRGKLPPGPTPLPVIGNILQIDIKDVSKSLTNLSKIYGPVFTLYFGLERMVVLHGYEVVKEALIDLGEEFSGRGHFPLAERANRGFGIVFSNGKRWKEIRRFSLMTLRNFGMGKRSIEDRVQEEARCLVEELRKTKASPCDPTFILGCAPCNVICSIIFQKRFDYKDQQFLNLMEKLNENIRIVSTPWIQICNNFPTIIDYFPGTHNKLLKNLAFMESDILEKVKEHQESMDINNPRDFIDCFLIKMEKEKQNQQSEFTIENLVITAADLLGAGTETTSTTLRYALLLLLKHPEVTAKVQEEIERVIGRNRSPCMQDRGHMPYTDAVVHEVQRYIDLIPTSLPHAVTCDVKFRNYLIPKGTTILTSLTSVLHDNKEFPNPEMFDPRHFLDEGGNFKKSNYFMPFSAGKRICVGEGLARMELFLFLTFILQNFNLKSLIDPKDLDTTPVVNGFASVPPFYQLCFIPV
# [6] = Luminescence Cell-Based Dose Confirmation HTS to Identify Inhibitors of Platelet Dense Granule Release. [Related pubchem assays: 1663 (Primary HTS), 1678 (Summary of Project)]; type: functional
# [7] = viability of PTEN-deleted HCT116 cells – cell-based, HCT116 PTEN knockout, dose response (AID 1047); type: functional;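 further: HCT116 colon tumor cells with PTEN knocked out; cells exposed to compound for 60 hours before readout; potency for loss of cell viability measured by luminescence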
# [8] = target: Luciferin 4-monooxygenase (Photinus pyralis, UniProt P08659); assay: inhibition of purified Photinus pyralis luciferase – biochemical, luminescence, dose response (AID 1891)
# Sequence of Luciferin 4-monooxygenase (P08659 whole entry): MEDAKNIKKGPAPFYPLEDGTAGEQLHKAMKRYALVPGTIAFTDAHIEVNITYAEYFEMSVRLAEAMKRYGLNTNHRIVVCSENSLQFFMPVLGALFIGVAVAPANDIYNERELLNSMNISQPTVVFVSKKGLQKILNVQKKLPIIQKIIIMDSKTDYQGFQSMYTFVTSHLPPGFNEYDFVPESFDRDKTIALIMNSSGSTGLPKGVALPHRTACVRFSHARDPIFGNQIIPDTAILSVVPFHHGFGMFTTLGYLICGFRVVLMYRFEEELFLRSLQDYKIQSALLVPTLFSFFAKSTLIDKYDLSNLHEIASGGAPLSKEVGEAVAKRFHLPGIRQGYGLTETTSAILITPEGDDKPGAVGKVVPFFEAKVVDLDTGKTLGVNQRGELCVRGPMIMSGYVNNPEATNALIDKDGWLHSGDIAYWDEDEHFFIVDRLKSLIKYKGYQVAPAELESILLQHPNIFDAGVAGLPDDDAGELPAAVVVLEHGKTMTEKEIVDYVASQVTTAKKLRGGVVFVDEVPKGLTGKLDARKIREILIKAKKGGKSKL
# [9] = HEK-293T viability loss after treatment – luminescence, T-cell screen hits, cytotoxicity control for TCR NF-kB inhibitor project, dose response (AID 489026); type: functional, cell-based;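 further: cells exposed to compound about 14 hours before the viability readout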
# [10] = viability of HCT116 lacking mutant beta-catenin – cell-based, human colon tumor, dose response (AID 1045); type: functional;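 further: HCT116 colon tumor cells with beta catenin knocked out; cells exposed to compound for 60 hours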
# [11] = blockers of HIV-1 envelope-mediated cell-cell fusion – cherry-pick, dose response (AID 652057); type: functional, cell-based
# [12] = off-target signal loss in HeLa-CEM21 co-culture – HeLa F-luc CTL cells, cherry-picked, counter-screen for HIV-1 Env fusion inhibitor project, dose response (AID 652040); type: functional, cell-based;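 further: potency for signal decrease marking cytotoxic or nonspecific inhibition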
# [13] = blockers of HIV-1 ZM109 envelope-driven cell-cell fusion – HeLa effector, CEM target cells, luciferase, cherry-pick, dose response (AID 652058); type: functional, cell-based;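 further: luciferase signal from HIV-1 Env mediated cell-cell fusion of effector and target cells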
# [14] = HIV-1 AD8 envelope cell-cell fusion blockers – cherry-pick, dose response (AID 652062); type: functional, cell-based;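 further: luciferase signal from cell-cell fusion driven by HIV-1 clade B AD8 Env; potency is for inhibitors of fusion seen as a drop in luminescence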
# [15] = microbe, parasite or virus in culture; type: functional; settings: Mycobacterium tuberculosis
# [16] = NIH3T3 cell viability loss – ATP luminescence, mouse fibroblasts, counter-screen, dose response (AID 2010); type: functional, cell-based;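 further: cells exposed to compound for about 90 hours before reading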
# Vero = assay: cells; type: functional; settings: Chlorocebus sabaeus
# [17] = Trypanosoma cruzi growth suppression in host cells – NIH3T3 host cells, beta-gal luminescence, confirmation (AID 2044); type: functional, cell-based;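 further: intracellular parasites grown in NIH/3T3 mouse fibroblasts as host cells; luminescent beta-galactosidase reporter signal from transgenic T. cruzi replicating inside host cells; inhibitors lower the luminescence signal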
# HEK293 = assay: EBV LMP1 TES2 canonical NF-kB signalling blockers – cell-based, HEK293, luciferase, cherry-pick, dose response (AID 588343); type: functional; settings: Homo sapiens
# cells [18] = type: functional, cell-based
# cells [19] = type: functional, cell-based; remark: listed apart in the source
# INS1 = assay: INS-1E survival protection against cytokine death – cell-based, luminescence, retest, dose response (AID 449756); type: functional; settings: Rattus norvegicus;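 further: cell death triggered by IL-1 beta plus TNF-alpha plus IFN-gamma mixture; protective hits raise ATP signal compared with cytokine alone wells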
smiles,measurement,setting,value
CC(C)Sc1nc2c3ccccc3nc-2c(O)n1C,IC50,[1],0.899 µM (not active)
Cc1cc(N2CCN(c3ccccc3)CC2)n2cc(-c3ccccc3)nc2n1,IC50,cells [2],40 µM (active)
same,CC50,[3],45.6 µM (active)
CCOC(=O)N1CCC(NC(=O)c2ccc3c(c2)ncn3C2CCCC2)CC1,IC50,[1],23.1 µM (not active)
CCOC(=O)C1CN(S(=O)(=O)c2ccc(C)cc2)C1,IC50,[1],4.65 µM (not active)
O=S(=O)(c1ccccc1F)N1CCCC(c2nc(O)c3nnn(Cc4ccccc4Cl)c3n2)C1 (centres undefined),IC50,cells [2],47.6 µM (active)
same,CC50,[3],47.8 µM (active)
O=Cc1ccc(-c2ccc([N+](=O)[O-])cc2Cl)o1,IC50,[1],> 50 µM (not active)
Cc1ccc(S(=O)(=O)NNC(=O)C(=O)NNc2ccccn2)cc1,AC50,[4],0.213 µM (active)
same,IC50,[5],> 20 µM (inactive)
CCCCCCCCC[n+]1cccc2c3ccccc3ccc21,AC50,Cytochrome P450 2C19,20 µM (inconclusive)
same,EC50,[6],64.7 µM (active)
same,EC50,[7],0.868 µM (active)
same,EC50,[8],67.9 µM (active)
same,IC50,[9],49.8 µM (inactive)
same,EC50,[10],0.798 µM (active)
COC(=O)[C@@]1(C)[C@H]2C(=O)N(Cc3ccccc3)C(=O)[C@H]2[C@H]2CN=C(SCc3ccccc3)N21,AC50,[11],0.75 µM (active)
same,AC50,[12],1.02 µM (active)
same,AC50,[13],0.74 µM (active)
same,AC50,[14],4.03 µM (active)
c1ccc(C[C@H]2CN=C(Nc3ccccc3)N2CCCC2CCCC2)cc1,CC50,[15],> 40 µM (active)
Cc1ncccc1C(=O)N1CCCC(C(=O)c2ccc3c4c(cccc24)CC3)C1 (centres undefined),AC50,[11],7.15 µM (active)
same,AC50,[12],20.4 µM (active)
same,AC50,[13],8.12 µM (active)
same,AC50,[14],8.47 µM (active)
CCc1ccc2nc(N(CCCN(C)C)C(=O)c3ccc4c(c3)OCCO4)sc2c1,EC50,[16],8.8 µM (active)
same,CC50,Vero,> 25 µM (active)
same,EC50,[17],0.214 µM (active)
COc1ccccc1NCC(=O)Nc1cc(S(=O)(=O)N2CCOCC2)ccc1N1CCOCC1,IC50,cells [2],5.88 µM (active)
Cc1cccc(N(C(=O)c2snc(C(N)=O)c2N)C(C(=O)NCC2CCCO2)c2cccs2)c1 (centres undefined),IC50,[5],> 20 µM (inactive)
CCc1ccc2nc(O)c(C(c3nnnn3Cc3ccc(OC)cc3)N3CCOCC3)cc2c1 (centres undefined),AC50,[11],4.74 µM (active)
same,AC50,[12],7.97 µM (active)
same,AC50,[13],6.44 µM (active)
same,AC50,[14],43.7 µM (active)
Cc1ccc(OCc2cc(C(=O)N(C)Cc3cnc4ccccn34)no2)cc1C,CC50,[15],> 40 µM (active)
NC(=O)c1nsc(C(=O)N(c2ccc(Cl)cc2)C(C(=O)NCC2CCCO2)c2cccs2)c1N (centres undefined),IC50,[5],> 20 µM (inactive)
COc1ccc2c(c1)C(=NNC(=O)c1ccccn1)c1cc(OC)ccc1-2,IC50,cells [2],24.6 µM (active)
same,CC50,[3],38.6 µM (active)
O=C(Nc1cccc(Cl)c1)Nc1cccc(C(=O)O)c1,AC50,HEK293,10.5 µM (active)
same,EC50,cells [18],> 350 µM (not active)
same,EC50,cells [19],7.49 µM (active)
CCOC(=O)c1c(CSc2nc(C)cc(C)c2C#N)n(C)c2cc(Br)c(OC(C)=O)cc12,AC50,HEK293,31.6 µM (active)
same,AC50,INS1,4.21 µM (active)
CCOCCOC(=O)c1[nH]c2c(c1C)C(=O)CC(c1cccs1)C2 (centres undefined),IC50,[9],> 80 µM (inactive)

# Reference: ChEMBL document CHEMBL1201862, “PubChem BioAssay data set” (2004)
